US20090304692A1, “TRIAZINE COMPOUNDS AS PI3 KINASE AND MTOR INHIBITORS” (Wyeth, priority 2008, published 2009)
Where “and” joins values, the source holds several entries; their conditions need not be identical. Equal entries are not always repeated. Where two headings read alike, the source gives them in different places.

How the values were obtained:
[1] = biological target: Human mTOR (FLAG-TOR) (Homo sapiens, UniProt P42345); assay: mTOR kinase assay (DELFIA format, purified enzyme); type: biochemical; details: read-out: IC50 mTOR
Chain of Human mTOR (FLAG-TOR) (P42345 1360-2549 limits assumed): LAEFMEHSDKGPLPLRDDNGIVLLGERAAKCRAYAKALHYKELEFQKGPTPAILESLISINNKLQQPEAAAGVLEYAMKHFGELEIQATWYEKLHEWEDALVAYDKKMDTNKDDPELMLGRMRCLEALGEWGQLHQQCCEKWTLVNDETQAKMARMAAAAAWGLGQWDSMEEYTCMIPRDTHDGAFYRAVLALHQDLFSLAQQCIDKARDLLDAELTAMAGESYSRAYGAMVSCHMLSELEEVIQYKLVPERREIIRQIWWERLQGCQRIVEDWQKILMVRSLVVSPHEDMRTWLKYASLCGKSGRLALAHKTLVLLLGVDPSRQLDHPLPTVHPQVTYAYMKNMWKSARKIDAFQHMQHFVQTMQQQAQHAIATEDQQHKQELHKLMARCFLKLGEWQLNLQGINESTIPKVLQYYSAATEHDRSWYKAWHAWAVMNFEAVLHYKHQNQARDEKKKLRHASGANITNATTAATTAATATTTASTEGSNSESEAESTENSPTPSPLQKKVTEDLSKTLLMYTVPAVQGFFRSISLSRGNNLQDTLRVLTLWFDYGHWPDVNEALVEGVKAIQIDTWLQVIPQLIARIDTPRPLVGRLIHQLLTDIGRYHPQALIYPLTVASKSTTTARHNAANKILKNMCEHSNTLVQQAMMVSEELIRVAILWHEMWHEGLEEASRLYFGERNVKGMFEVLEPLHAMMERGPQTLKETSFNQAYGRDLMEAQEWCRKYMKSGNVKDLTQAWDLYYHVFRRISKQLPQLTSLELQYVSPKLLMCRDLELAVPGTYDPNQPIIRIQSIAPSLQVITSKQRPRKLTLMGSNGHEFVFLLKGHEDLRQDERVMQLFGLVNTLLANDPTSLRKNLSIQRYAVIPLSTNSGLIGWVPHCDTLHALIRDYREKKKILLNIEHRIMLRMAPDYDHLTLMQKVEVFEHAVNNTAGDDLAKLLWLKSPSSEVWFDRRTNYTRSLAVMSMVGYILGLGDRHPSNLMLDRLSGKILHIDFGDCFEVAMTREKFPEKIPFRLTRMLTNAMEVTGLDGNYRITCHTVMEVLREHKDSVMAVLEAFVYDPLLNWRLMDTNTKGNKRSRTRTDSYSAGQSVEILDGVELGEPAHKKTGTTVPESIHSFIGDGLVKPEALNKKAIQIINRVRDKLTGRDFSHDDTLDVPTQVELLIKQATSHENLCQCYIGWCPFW

[2] = test system: human breast MDA-MB-361 tumor cell line; assay: In vitro cell culture growth assay (MTS), MDA-MB-361; type: cell-based; details: Homo sapiens, three days after drug treatment, read-out: IC50 MDA-MB-361
[3] = test system: human prostate PC3-mm2 tumor cell line; assay: In vitro cell culture growth assay (MTS), PC3-mm2; type: cell-based; details: Homo sapiens, PC3MM2, 72 h
[4] = biological target: PI3K-α (Homo sapiens, UniProt P42336); assay: PI3K-alpha fluorescence polarization assay; details: read-out: IC50 PI3Kα
Chain of PI3K-α (P42336 whole entry, species assumed): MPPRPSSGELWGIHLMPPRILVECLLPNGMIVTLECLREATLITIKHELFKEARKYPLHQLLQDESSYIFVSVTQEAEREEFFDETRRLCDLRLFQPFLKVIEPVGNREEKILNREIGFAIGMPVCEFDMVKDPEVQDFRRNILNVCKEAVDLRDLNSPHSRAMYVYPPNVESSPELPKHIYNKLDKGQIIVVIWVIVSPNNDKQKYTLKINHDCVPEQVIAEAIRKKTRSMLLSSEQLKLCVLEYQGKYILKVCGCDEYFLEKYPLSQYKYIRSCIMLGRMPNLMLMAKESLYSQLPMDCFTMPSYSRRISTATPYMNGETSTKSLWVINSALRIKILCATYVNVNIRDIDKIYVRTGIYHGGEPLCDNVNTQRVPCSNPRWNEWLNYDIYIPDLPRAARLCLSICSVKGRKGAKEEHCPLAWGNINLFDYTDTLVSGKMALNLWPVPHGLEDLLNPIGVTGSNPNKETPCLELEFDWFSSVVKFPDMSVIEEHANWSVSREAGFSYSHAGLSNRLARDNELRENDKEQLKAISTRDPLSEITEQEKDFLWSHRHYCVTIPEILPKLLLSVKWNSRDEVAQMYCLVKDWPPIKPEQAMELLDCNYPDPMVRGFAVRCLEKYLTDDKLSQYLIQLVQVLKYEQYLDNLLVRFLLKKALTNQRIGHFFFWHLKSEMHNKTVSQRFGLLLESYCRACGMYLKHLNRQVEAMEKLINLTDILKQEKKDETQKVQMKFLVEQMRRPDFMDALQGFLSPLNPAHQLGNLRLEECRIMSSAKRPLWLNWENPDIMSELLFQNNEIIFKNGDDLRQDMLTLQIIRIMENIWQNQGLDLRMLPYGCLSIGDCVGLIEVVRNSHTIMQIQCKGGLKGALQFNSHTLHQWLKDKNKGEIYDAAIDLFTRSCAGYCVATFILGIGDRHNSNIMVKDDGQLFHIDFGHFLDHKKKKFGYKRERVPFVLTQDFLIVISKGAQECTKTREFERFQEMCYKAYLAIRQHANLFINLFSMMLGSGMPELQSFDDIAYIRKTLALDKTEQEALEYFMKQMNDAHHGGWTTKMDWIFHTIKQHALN
Chain of PI3K-α (P27986 whole entry partner, species assumed): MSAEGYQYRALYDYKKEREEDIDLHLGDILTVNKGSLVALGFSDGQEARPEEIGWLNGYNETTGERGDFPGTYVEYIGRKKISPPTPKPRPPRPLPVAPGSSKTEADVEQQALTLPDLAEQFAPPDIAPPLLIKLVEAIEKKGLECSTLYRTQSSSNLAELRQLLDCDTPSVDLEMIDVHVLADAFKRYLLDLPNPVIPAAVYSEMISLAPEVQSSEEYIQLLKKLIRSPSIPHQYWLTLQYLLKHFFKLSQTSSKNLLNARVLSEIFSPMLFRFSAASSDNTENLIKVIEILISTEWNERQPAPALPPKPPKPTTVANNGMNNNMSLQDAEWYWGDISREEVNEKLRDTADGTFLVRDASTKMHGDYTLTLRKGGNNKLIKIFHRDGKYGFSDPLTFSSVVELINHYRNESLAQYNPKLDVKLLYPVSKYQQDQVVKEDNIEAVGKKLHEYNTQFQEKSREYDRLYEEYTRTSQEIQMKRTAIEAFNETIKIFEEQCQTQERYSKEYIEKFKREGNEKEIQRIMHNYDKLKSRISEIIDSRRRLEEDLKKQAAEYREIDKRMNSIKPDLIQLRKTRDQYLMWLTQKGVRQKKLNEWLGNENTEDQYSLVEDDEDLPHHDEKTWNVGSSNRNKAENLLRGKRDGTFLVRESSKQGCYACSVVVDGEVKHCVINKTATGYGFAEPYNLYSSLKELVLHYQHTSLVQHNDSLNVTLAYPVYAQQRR

[5] = biological target: PI3K-γ (Homo sapiens, UniProt P48736); assay: PI3K-gamma fluorescence polarization assay; details: read-out: IC50 PI3Kγ
Chain of PI3K-γ (P48736 whole entry, species assumed): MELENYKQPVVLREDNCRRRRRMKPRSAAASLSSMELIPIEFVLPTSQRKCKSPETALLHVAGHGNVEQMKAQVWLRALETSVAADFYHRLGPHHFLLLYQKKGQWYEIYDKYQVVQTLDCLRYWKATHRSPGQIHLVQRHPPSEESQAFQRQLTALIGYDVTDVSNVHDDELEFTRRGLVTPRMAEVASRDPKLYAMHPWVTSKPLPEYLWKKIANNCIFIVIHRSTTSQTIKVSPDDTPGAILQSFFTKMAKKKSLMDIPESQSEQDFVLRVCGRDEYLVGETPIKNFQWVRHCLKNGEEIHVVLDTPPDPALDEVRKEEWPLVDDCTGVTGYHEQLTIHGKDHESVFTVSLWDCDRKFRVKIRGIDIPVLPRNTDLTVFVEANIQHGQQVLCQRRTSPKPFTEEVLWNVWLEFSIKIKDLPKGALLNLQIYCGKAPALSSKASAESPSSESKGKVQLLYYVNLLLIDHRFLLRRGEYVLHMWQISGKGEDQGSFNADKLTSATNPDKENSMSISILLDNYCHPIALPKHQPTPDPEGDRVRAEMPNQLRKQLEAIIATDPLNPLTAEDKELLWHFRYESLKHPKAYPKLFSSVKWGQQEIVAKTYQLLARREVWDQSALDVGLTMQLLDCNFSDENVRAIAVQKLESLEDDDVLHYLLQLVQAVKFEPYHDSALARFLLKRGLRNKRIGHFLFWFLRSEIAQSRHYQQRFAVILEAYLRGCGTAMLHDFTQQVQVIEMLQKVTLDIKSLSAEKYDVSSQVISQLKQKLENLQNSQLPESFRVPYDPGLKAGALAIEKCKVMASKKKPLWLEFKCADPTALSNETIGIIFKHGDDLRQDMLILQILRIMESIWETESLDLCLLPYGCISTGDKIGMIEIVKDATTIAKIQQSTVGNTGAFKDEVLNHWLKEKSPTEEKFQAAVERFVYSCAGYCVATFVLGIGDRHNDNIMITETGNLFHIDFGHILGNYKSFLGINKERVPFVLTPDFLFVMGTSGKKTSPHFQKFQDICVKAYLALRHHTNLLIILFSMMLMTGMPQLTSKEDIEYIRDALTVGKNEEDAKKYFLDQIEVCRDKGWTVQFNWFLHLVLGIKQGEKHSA

[6] = MDA-MB-361, 72 h, MTS cell growth assay
[7] = MTS cell growth assay, three days after drug treatment, PC3-mm2 cells, read-out: IC50 PC3-mm2
[8] = MTS cell growth assay, three days after drug treatment, read-out: IC50 PC3-mm2
[9] = MDA-MB-361, 72 h, MTS cell growth assay, MDA-MB-361 cells
[10] = PC3-mm2 cells, MTS, three days after drug treatment, read-out: IC50 PC3-mm2
[11] = 72 h, MTS cell growth assay, MDA-MB-361 cells

With `CN1CCN(CCCc2nc(-c3ccc(NC(=O)Nc4ccncc4)cc3)nc(N3CCOCC3)n2)CC1` [Example 277, 1-(4-{4-[3-(4-methylpiperazin-1-yl)propyl]-6-morpholin-4-yl-1,3,5-triazin-2-yl}phenyl)-3-pyridin-4-ylurea] the IC50 [1] was 0.06 µM and 0.0595 µM, the IC50 [2, 6] was 0.53 µM and the IC50 [3, 7] was 0.572 µM. The IC50 [3, 8] was 0.572 µM, the IC50 [4] was 0.03 µM and the IC50 ([4]; listed as 734) was 0.0255 µM. The IC50 [5] was 0.276 µM and the IC50 ([5]; listed as 734) was 0.21 µM.

With `O=C(Nc1ccc(C(=O)O)cc1)Nc1ccc(-c2nc(C3=CCOCC3)nc(N3CCOCC3)n2)cc1` [Example 227, 4-[({4-[4-(3,6-dihydro-2H-pyran-4-yl)-6-morpholin-4-yl-1,3,5-triazin-2-yl]phenyl}carbamoyl)amino]benzoic acid] the IC50 [1] was 0.0073 µM, the IC50 [2, 6] was 1.5 µM and the IC50 [3, 8] was 4.03 µM. The IC50 [4] was 0.023 µM and the IC50 [5] was 0.081 µM.

Compound `C[C@H]1COCCN1c1nc(-c2ccc(NC(=O)Nc3ccc(C(=O)N4CCC(N(C)C)CC4)cc3)cc2)nc(N2CCOC[C@@H]2C)n1` [Example 616, 1-(4-{4,6-bis[(3S)-3-methylmorpholin-4-yl]-1,3,5-triazin-2-yl}phenyl)-3-(4-{[4-(dimethylamino)piperidin-1-yl]carbonyl}phenyl)urea] has an IC50 [1] of 0.001 µM, an IC50 [2, 9] of 0.004 µM and an IC50 [3, 7] of 0.021 µM. It also gave an IC50 [4] of 0.004 µM and an IC50 [5] of 0.0585 µM.

Compound `O=C(Nc1ccncc1)Nc1ccc(-c2nc(N3CCOCC3)nc(N3C4COCC3[C@@H](O)C4)n2)cc1` (stereo partly drawn) [Example 818, 1-(4-{4-[(6S)-6-hydroxy-3-oxa-8-azabicyclo[3.2.1]oct-8-yl]-6-morpholin-4-yl-1,3,5-triazin-2-yl}phenyl)-3-pyridin-4-ylurea] has an IC50 [1] of 0.002 µM, an IC50 ([2]; 72 h, MDA-MB-361 cells, MTS) of 0.129 µM and an IC50 [3, 10] of 0.237 µM. It also gave an IC50 [4] of 0.0377 µM and an IC50 [5] of 0.185 µM.

For `O=C(Nc1ccc(C(=O)N2CCNCC2)cc1)Nc1ccc(-c2nc(N3CCOCC3)nc(N3CCOCC3)n2)cc1` [Example 77, 1-(4-(4,6-dimorpholino-1,3,5-triazin-2-yl)phenyl)-3-(4-(piperazine-1-carbonyl)phenyl)urea], the IC50 [1] was 0.00068 µM, the IC50 [2, 6] was less than 0.03 µM and the IC50 [3, 8] was less than 0.03 µM. It also gave an IC50 [4] of 0.0003 µM and an IC50 [5] of 0.004 µM.

In the case of `COC(=O)c1ccc(NC(=O)Nc2ccc(-c3nc(N4CCCOCC4)nc(N4CCOCC4)n3)cc2)cc1` [Example 567, methyl 4-[({4-[4-morpholin-4-yl-6-(1,4-oxazepan-4-yl)-1,3,5-triazin-2-yl]phenyl}carbamoyl)amino]benzoate], the IC50 [1] is reported as 0.002 µM, the IC50 [2, 9] is reported as 0.106 µM and the IC50 [3, 7] is reported as 0.13 µM. It also gave an IC50 [4] of 0.0145 µM and an IC50 [5] of 0.09 µM.

`O=C(Nc1ccc(C(=O)NCCN2CCCCC2)cc1)Nc1ccc(-c2nc(N3CCOCC3)nc(N3C4COCC3COC4)n2)cc1` [Example 775, 4-[({4-[4-(3,7-dioxa-9-azabicyclo[3.3.1]non-9-yl)-6-morpholin-4-yl-1,3,5-triazin-2-yl]phenyl}carbamoyl)amino]-N-(2-piperidin-1-ylethyl)benzamide] showed an IC50 [1] of 0.00023 µM, an IC50 [2, 11] of 0.005 µM and an IC50 [3, 7] of 0.007 µM. The IC50 [4] was 0.0025 µM and the IC50 [5] was 0.0465 µM.

In the case of `CN(C)C1CCN(c2ccc(NC(=O)Nc3ccc(-c4nc(-c5ccccc5)nc(N5CCOCC5)n4)cc3)cc2)CC1` [Example 345, 1-{4-[4-(dimethylamino)piperidin-1-yl]phenyl}-3-[4-(4-morpholin-4-yl-6-phenyl-1,3,5-triazin-2-yl)phenyl]urea], the IC50 [1] is reported as 0.08 µM and 0.0815 µM, the IC50 [2, 6] is reported as 0.554 µM and the IC50 [3, 7] is reported as 0.395 µM. The IC50 [3, 8] was 0.395 µM, the IC50 [4] was 0.043 µM and the IC50 ([4]; listed as 535) was 0.0435 µM. The IC50 [5] was 0.112 µM.

For `O=C(Nc1ccc(C(=O)N2CCCC2)cc1)Nc1ccc(-c2nc(N3CCCC3)nc(N3CCOCC3)n2)cc1` [Example 612, 1-[4-(4-morpholin-4-yl-6-pyrrolidin-1-yl-1,3,5-triazin-2-yl)phenyl]-3-[4-(pyrrolidin-1-ylcarbonyl)phenyl]urea], the IC50 [1] was 0.061 µM, the IC50 [2, 9] was 0.038 µM and the IC50 [3, 7] was 0.227 µM. It also gave an IC50 [4] of 0.0055 µM and an IC50 [5] of 0.067 µM.

`CCN1CCN(C(=O)c2ccc(NC(=O)Nc3ccc(-c4nc(N5CCOCC5)nc(N5C6CCCC5COC6)n4)cc3)cc2)CC1` [Example 804, 1-{4-[(4-ethylpiperazin-1-yl)carbonyl]phenyl}-3-{4-[4-morpholin-4-yl-6-(3-oxa-9-azabicyclo[3.3.1]non-9-yl)-1,3,5-triazin-2-yl]phenyl}urea] gave an IC50 [1] of 0.000425 µM, an IC50 ([2]; MDA-MB-361, 72 h, MDA-MB-361 cells, MTS) of 0.003 µM and an IC50 [3, 10] of 0.011 µM. The IC50 [4] was 0.006 µM and the IC50 [5] was 0.0595 µM.

`CN(C)C1CCN(C(=O)c2ccc(NC(=O)Nc3ccc(-c4nc(C5CCOCC5)nc(N5CCOCC5)n4)cc3)cc2)CC1` [Example 350, 1-(4-{[4-(dimethylamino)piperidin-1-yl]carbonyl}phenyl)-3-{4-[4-morpholin-4-yl-6-(tetrahydro-2H-pyran-4-yl)-1,3,5-triazin-2-yl]phenyl}urea] was tested, and the IC50 [1] was 0.00089 µM, the IC50 [2, 9] was less than 0.00308 µM and the IC50 [3, 7] was 0.0085 µM. It also gave an IC50 [3, 8] of 0.0085 µM, an IC50 [4] of 0.001 µM and an IC50 ([4]; listed as 478) of 0.0011 µM. The IC50 [5] was 0.007 µM, the IC50 ([5]; listed as 478) was 0.006 µM and the IC50 ([5]; listed as 510) was 0.0063 µM.

Compound `CN(C)CCCNC(=O)c1ccc(NC(=O)Nc2ccc(-c3nc(N4CCOCC4)nc(N4C5CCC4COC5)n3)cc2)cc1` [Example 700, N-[3-(dimethylamino)propyl]-4-[({4-[4-morpholin-4-yl-6-(3-oxa-8-azabicyclo[3.2.1]oct-8-yl)-1,3,5-triazin-2-yl]phenyl}carbamoyl)amino]benzamide] has an IC50 [1] of 0.00053 µM, an IC50 [2, 11] of 0.005 µM and an IC50 [3, 7] of 0.02 µM. The IC50 [4] was 0.0025 µM and the IC50 [5] was 0.0415 µM.

`CCCCc1nc(-c2ccc(NC(=O)Nc3ccc(C(=O)Nc4ccc(N5CCN(C)CC5)cc4)cc3)cc2)nc(N2CCOCC2)n1` [Example 253, 4-({[4-(4-butyl-6-morpholin-4-yl-1,3,5-triazin-2-yl)phenyl]carbamoyl}amino)-N-[4-(4-methylpiperazin-1-yl)phenyl]benzamide] gave an IC50 [1] of 0.009 µM, an IC50 [2, 6] of 0.012 µM and an IC50 [3, 8] of 0.574 µM. For the same compound, the IC50 [4] was 0.008 µM and the IC50 [5] was 0.267 µM.

`CCc1nc(-c2ccc(NC(=O)Nc3ccc(C(=O)NCCN(C)C)cc3)cc2)nc(N2CCOCC2)n1` [Example 237, N-[2-(dimethylamino)ethyl]-4-({[4-(4-ethyl-6-morpholin-4-yl-1,3,5-triazin-2-yl)phenyl]carbamoyl}amino)benzamide] was tested, and the IC50 [1] was 0.003 µM, the IC50 [2, 6] was 0.028 µM and the IC50 [3, 8] was 0.069 µM. It also gave an IC50 [4] of 0.002 µM and an IC50 [5] of 0.023 µM.

In the case of `CN(C)CCNC(=O)c1ccc(NC(=O)Nc2ccc(-c3nc(N4CCOCC4)nc(N4CCOCC4)n3)cc2)cc1` [Example 68, N-(2-(dimethylamino)ethyl)-4-(3-(4-(4,6-dimorpholino-1,3,5-triazin-2-yl)phenyl)ureido)benzamide], the IC50 [1] is reported as 0.00057 µM, the IC50 [2, 6] is reported as less than 0.003 µM and the IC50 ([3]; read-out: IC50 PC3-mm2, MTS cell growth assay, three days after drug treatment) is reported as 0.011 µM. The IC50 [4] was 0.0003 µM and the IC50 [5] was 0.007 µM.

`NS(=O)(=O)N1CCC(Oc2nc(-c3ccc(NC(=O)Nc4ccncc4)cc3)nc(N3CCOCC3)n2)CC1` [Example 692, 4-[(4-morpholin-4-yl-6-{4-[(pyridin-4-ylcarbamoyl)amino]phenyl}-1,3,5-triazin-2-yl)oxy]piperidine-1-sulfonamide] showed an IC50 [1] of 0.00375 µM, an IC50 [2, 11] of 0.097 µM and an IC50 [3, 7] of 0.326 µM. The IC50 [4] was 0.0032 µM and the IC50 [5] was 0.029 µM.

With `O=C(Nc1ccc(-c2nc(N3CCOCC3)nc(N3C4CCC3COC4)n2)cc1)Nc1ccnc(-c2cccnc2)c1` [Example 336, 1-(2,3′-bipyridin-4-yl)-3-{4-[4-morpholin-4-yl-6-(3-oxa-8-azabicyclo[3.2.1]oct-8-yl)-1,3,5-triazin-2-yl]phenyl}urea] the IC50 [1] was 0.0036 µM and 0.00345 µM, the IC50 [2, 6] was 0.056 µM and the IC50 [3, 7] was 0.045 µM. It also gave an IC50 [3, 8] of 0.045 µM, an IC50 [4] of 0.04 µM and an IC50 [5] of 0.044 µM.

For `CN(C)CCN(C)C(=O)c1ccc(NC(=O)Nc2ccc(-c3nc(N4CCOCC4)nc(N4C5CCC4COC5)n3)cc2)cc1` [Example 698, N-[2-(dimethylamino)ethyl]-N-methyl-4-[({4-[4-morpholin-4-yl-6-(3-oxa-8-azabicyclo[3.2.1]oct-8-yl)-1,3,5-triazin-2-yl]phenyl}carbamoyl)amino]benzamide], the IC50 [1] was 0.000302 µM, the IC50 [2, 11] was less than 0.003 µM and the IC50 [3, 7] was 0.006 µM. It also gave an IC50 [4] of 0.0027 µM and an IC50 [5] of 0.0447 µM.

For `CN(C)C1CCN(C(=O)c2ccc(NC(=O)Nc3ccc(-c4nc(N5CCOCC5)nc(N5C6CCCC5COC6)n4)cc3)cc2)CC1` [Example 794, 1-(4-{[4-(dimethylamino)piperidin-1-yl]carbonyl}phenyl)-3-{4-[4-morpholin-4-yl-6-(3-oxa-9-azabicyclo[3.3.1]non-9-yl)-1,3,5-triazin-2-yl]phenyl}urea], the IC50 [1] was 0.00063 µM, the IC50 [2, 9] was 0.002 µM and the IC50 [3, 7] was 0.02 µM. It also gave an IC50 [4] of 0.0041 µM and an IC50 [5] of 0.026 µM.
